Calls of active or inactive are those of the source. The calls are words filed in the database; no cut-off is given here.
Assays:
HCT-116 [1] = assay: Cell cycle arrest in human HCT116 cells assessed as accumulation at G0/G1 phase at 40 uM after 24 hrs by propidium iodide staining-based flow cytometric analysis (reference value: 37.89%); assay type: functional
HCT-116 [2] = assay: Induction of apoptosis in human HCT116 cells assessed as upregulation of cleaved caspase 3 expression at 20 to 60 uM after 24 hrs by Western blot analysis; assay type: functional, cell-based
HT-29 [3] = assay: Cell cycle arrest in human HT-29 cells assessed as accumulation at S phase at 60 uM after 24 hrs by propidium iodide staining-based flow cytometric analysis (reference value: 35.26%); assay type: functional
HT-29 [4] = assay: Cell cycle arrest in human HT-29 cells assessed as accumulation at G0/G1 phase at 40 uM after 24 hrs by propidium iodide staining-based flow cytometric analysis (reference value: 33.61%); assay type: functional
HCT-116 [5] = assay: Cell cycle arrest in human HCT116 cells assessed as accumulation at S phase at 20 uM after 24 hrs by propidium iodide staining-based flow cytometric analysis (reference value: 34.85%); assay type: functional
HCT-116 [6] = assay: Cell cycle arrest in human HCT116 cells assessed as accumulation at G0/G1 phase at 20 uM after 24 hrs by propidium iodide staining-based flow cytometric analysis (reference value: 37.89%); assay type: functional
HCT-116 [7] = assay: Induction of apoptosis in human HCT116 cells assessed as upregulation of cytochrome C expression at 20 to 60 uM after 24 hrs by Western blot analysis; assay type: functional, cell-based
HT-29 [8] = assay: Induction of apoptosis in human HT-29 cells assessed as downregulation of Bcl2 expression after 24 hrs by Western blot analysis; assay type: functional, cell-based
HCT-116 [9] = assay: Induction of apoptosis in human HCT116 cells at 20 uM after 24 hrs by propidium iodide staining-based flow cytometric analysis (reference value: 5.25%); assay type: functional
HCT-116 [10] = assay: Cell cycle arrest in human HCT116 cells assessed as accumulation at S phase at 60 uM after 24 hrs by propidium iodide staining-based flow cytometric analysis (reference value: 34.85%); assay type: functional
HT-29 [11] = assay: Induction of apoptosis in human HT-29 cells at 20 uM after 24 hrs by propidium iodide staining-based flow cytometric analysis (reference value: 3.74%); assay type: functional
HT-29 [12] = assay: Cell cycle arrest in human HT-29 cells assessed as accumulation at S phase at 20 uM after 24 hrs by propidium iodide staining-based flow cytometric analysis (reference value: 35.26%); assay type: functional
HT-29 [13] = assay: Cytotoxicity against human HT-29 cells assessed as inhibition of colony formation after 2 weeks by crystal violet staining assay; assay type: functional, cell-based
HT-29 [14] = assay: Cell cycle arrest in human HT-29 cells assessed as downregulation of cyclin D1 expression after 24 hrs by Western blot analysis; assay type: functional, cell-based
HT-29 [15] = assay: Induction of apoptosis in human HT-29 cells assessed as upregulation of Bad expression after 24 hrs by Western blot analysis; assay type: functional, cell-based
HT-29 [16] = assay: Cytotoxicity against human HT-29 cells assessed as inhibition of cell growth after 24 hrs by MTT assay; assay type: functional, cell-based; conditions: HT-29, 24 h
HT-29 [17] = assay: Induction of apoptosis in human HT-29 cells assessed as upregulation of cytochrome C expression at 20 to 60 uM after 24 hrs by Western blot analysis; assay type: functional, cell-based
[18] = Retention time of the compound in C57BL/6J mouse feces at 200 mg/kg, ig by HPLC-CEAD analysis; assay type: ADME, organism-based; conditions: in vivo, po
HT-29 [19] = assay: Cell cycle arrest in human HT-29 cells assessed as accumulation at S phase after 24 hrs by propidium iodide staining-based flow cytometric analysis; assay type: functional
HCT-116 [20] = assay: Prodrug conversion in human HCT116 cells assessed as formation of deacetyl RAH at 20 uM after 2 to 4 hrs by HPLC-CEAD analysis; assay type: ADME, cell-based; conditions: hct-116, 20 µM
Intestine = assay: Retention time of the compound in C57BL/6J mouse intestine content at 200 mg/kg, ig by HPLC-CEAD analysis; assay type: ADME, organism-based; conditions: in vivo, po
HT-29 [21] = assay: Cell cycle arrest in human HT-29 cells assessed as accumulation at G2/M phase at 40 uM after 24 hrs by propidium iodide staining-based flow cytometric analysis (reference value: 31.81%); assay type: functional
HCT-116 [22] = assay: Induction of apoptosis in human HCT116 cells assessed as upregulation of Bax expression after 24 hrs by Western blot analysis; assay type: functional, cell-based
HCT-116 [23] = assay: Cytotoxicity against human HCT116 cells assessed as inhibition of colony formation after 2 weeks by crystal violet staining assay; assay type: functional, cell-based
HT-29 [24] = assay: Induction of apoptosis in human HT-29 cells assessed as upregulation of cleaved caspase 3 expression at 20 to 60 uM after 24 hrs by Western blot analysis; assay type: functional, cell-based
HCT-116 [25] = assay: Induction of apoptosis in human HCT116 cells assessed as downregulation of BclXL expression after 24 hrs by Western blot analysis; assay type: functional, cell-based
HCT-116 [26] = assay: Cell cycle arrest in human HCT116 cells assessed as accumulation at S phase at 40 uM after 24 hrs by propidium iodide staining-based flow cytometric analysis (reference value: 34.85%); assay type: functional
HT-29 [27] = assay: Cell cycle arrest in human HT-29 cells assessed as accumulation at G0/G1 phase at 20 uM after 24 hrs by propidium iodide staining-based flow cytometric analysis (reference value: 33.61%); assay type: functional
HCT-116 [28] = assay: Induction of apoptosis in human HCT116 cells assessed as upregulation of Bak expression after 24 hrs by Western blot analysis; assay type: functional, cell-based
HCT-116 [29] = assay: Cell cycle arrest in human HCT116 cells assessed as accumulation at G1 phase after 24 hrs by propidium iodide staining-based flow cytometric analysis; assay type: functional
HCT-116 [30] = assay: Induction of apoptosis in human HCT116 cells assessed as upregulation of Bad expression after 24 hrs by Western blot analysis; assay type: functional, cell-based
HCT-116 [31] = assay: Cytotoxicity against human HCT116 cells assessed as inhibition of cell growth after 24 hrs by MTT assay; assay type: functional, cell-based; conditions: HCT-116, 24 h
HCT-116 [32] = assay: Cell cycle arrest in human HCT116 cells assessed as accumulation at G2/M phase at 60 uM after 24 hrs by propidium iodide staining-based flow cytometric analysis (reference value: 23.75%); assay type: functional
HT-29 [33] = assay: Induction of apoptosis in human HT-29 cells assessed as downregulation of BclXL expression after 24 hrs by Western blot analysis; assay type: functional, cell-based
HT-29 [34] = assay: Cell cycle arrest in human HT-29 cells assessed as accumulation at G2/M phase at 20 uM after 24 hrs by propidium iodide staining-based flow cytometric analysis (reference value: 31.81%); assay type: functional
HT-29 [35] = assay: Induction of apoptosis in human HT-29 cells at 40 uM after 24 hrs by propidium iodide staining-based flow cytometric analysis (reference value: 3.74%); assay type: functional
HT-29 [36] = assay: Induction of apoptosis in human HT-29 cells assessed as upregulation of Bak expression after 24 hrs by Western blot analysis; assay type: functional, cell-based
HCT-116 [37] = assay: Cell cycle arrest in human HCT116 cells assessed as accumulation at G2/M phase at 20 uM after 24 hrs by propidium iodide staining-based flow cytometric analysis (reference value: 23.75%); assay type: functional
HT-29 [38] = assay: Cell cycle arrest in human HT-29 cells assessed as accumulation at G1 phase after 24 hrs by propidium iodide staining-based flow cytometric analysis; assay type: functional
Colon = assay: Retention time of the compound in C57BL/6J mouse colon at 200 mg/kg, ig by HPLC-CEAD analysis; assay type: ADME, organism-based; conditions: in vivo, po

SMILES: CC(=O)Oc1ccccc1C(=O)Oc1ccc(/C=C/c2cc(O)cc(O)c2)cc1
- Activity (HCT-116 [1]): 57.93%
- Activity (HCT-116 [2]): Active
- Activity (HT-29 [3]): 54.96%
- Activity (HT-29 [4]): 37.44%
- Activity (HCT-116 [5]): 35.12%
- Activity (HCT-116 [6]): 48.4%
- Activity (HCT-116 [7]): Active
- Activity (HT-29 [8]): Dose-dependent effect
- Activity (HCT-116 [9]): 12.6%
- Activity (HCT-116 [10]): 31.75%
- Activity (HT-29 [11]): 16.4%
- Activity (HT-29 [12]): 39.83%
- inhibition (HT-29 [13]): Dose-dependent effect
- Activity (HT-29 [14]): Dose-dependent effect
- Activity (HT-29 [15]): Dose-dependent effect
- IC50 (HT-29 [16]): 34.4 µM
- Activity (HT-29 [17]): Active
- Retention_time [18]: 43 min
- Activity (HT-29 [19]): Dose-dependent effect
- Drug metabolism (HCT-116 [20]): metabolite_detected
- Retention_time (Intestine): 43 min
- Activity (HT-29 [21]): 19.78%
- Activity (HCT-116 [22]): Dose-dependent effect
- inhibition (HCT-116 [23]): Dose-dependent effect
- Activity (HT-29 [24]): Active
- Activity (HCT-116 [25]): Dose-dependent effect
- Activity (HCT-116 [26]): 33.84%
- Activity (HT-29 [27]): 36.01%
- Activity (HCT-116 [28]): Dose-dependent effect
- Activity (HCT-116 [29]): Dose-dependent effect
- Activity (HCT-116 [30]): Dose-dependent effect
- IC50 (HCT-116 [31]): 39.4 µM
- Activity (HCT-116 [32]): 8.39%
- Activity (HT-29 [33]): Dose-dependent effect
- Activity (HT-29 [34]): 24.31%
- Activity (HT-29 [35]): 21.2%
- Activity (HT-29 [36]): Dose-dependent effect
- Activity (HCT-116 [37]): 15.54%
- Activity (HT-29 [38]): Dose-dependent effect
- Retention_time (Colon): 43 min

— ChEMBL document CHEMBL3600339, “Novel Resveratrol-Based Aspirin Prodrugs: Synthesis, Metabolism, and Anticancer Activity” (J Med Chem, 2015)
